Here are results for 1 compound from patent US20080293814A1, “CONCENTRATE ESMOLOL” (priority 2007, published 2008).

Structures can show the parent of a compound that is named as a salt.

The series is described as follows: pH dependence of esmolol degradation in solution. Type of series: physicochemical. Here is the method: While lower concentration (e.g., 10 mg/ml) ready-to-use compositions of esmolol require an additional buffer to maintain pH, higher concentrations of esmolol in the present invention compositions, provide self-buffering capacity to the composition. […] The concentrate can include a pharmaceutically acceptable buffer to aid in maintaining the pH in a range of from about 3.5 to about 7.0. Preferably, the pH is maintained between about 4.5 and about 5.5, more preferably between 4.9 and 5.1.

As for `COC(=O)CCc1ccc(OCC(O)CNC(C)C)cc1` (stereo not shown) [esmolol, methyl-3-[4-(2-hydroxy-3-isopropylamino)propoxy]phenylpropionate hydrochloride], the “pH at which esmolol is most stable” value is “about 5.0”.
